Laboratory results published in article PMC10051910 (Marine Drugs, 2023).

Test system: COMI cells
Format: cell-based, Human

With `CC[C@@]1(O)C(=O)OCc2c1cc1n(c2=O)Cc2cc3ccccc3nc2-1` [camptothecin] the p53 level was “massively upregulate p53”.
